According to patent US9301933B2, “Compositions and methods for treating presbyopia, mild hyperopia, and irregular astigmatism” (ALLERGAN, INC., priority 2011, dated 2016):
Values joined by “and” are separate entries in the source; they are usually repeats but may differ in a detail not shown here. Equal values may be shown once.

Key:
[1] = system: eyes of presbyopic (emmetropic or slightly hyperopic) patients; experiment: Unaided distance visual acuity (UDVA), Snellen chart; assay type: in vivo, human; settings: Example 3
Description: (§1) A group of 10 patients (20 eyes) considered emmetropes or slightly hyperopic (Spherical equivalent from +0.88 D to −0.13 D with less than 1.00 D of astigmatism) was treated with a composition of the invention.
(§2) One drop containing 1% pilocarpine and 0.025% oxymetazoline w/w dissolved in a solution of 0.5% sodium chloride, with carboxymethyl cellulose as a viscosant and benzalkonium chloride as preservative were instilled once into the right eye, and the same solution containing 1% pilocarpine without oxymetazoline was instilled once into the left eye and the same measurements were taken one hour, four hours and six hours later. (Each patient acted as its own control) (Table 2). […]

patients' eyes = settings: cited from earlier work
[2] = system: eyes of presbyopic (emmetropic or slightly hyperopic) patients; experiment: Unaided near visual acuity (UNVA) at 40 centimeters, hand-held Rosembaum chart, Jaeger notation; assay type: in vivo, human; parameters: key to 1 h UNVA: J1+ is fine “normal” near vision (equivalent to 20/20 in Snellen terms); J1 is good near vision (equivalent to 20/25 in Snellen terms); J2 and J3 are fair and functional near vision, respectively (equivalent to 20/30 and 20/40, respectively, in Snellen terms); J2 and J3 are fair and functional near vision, respectively (equivalent to 20/30 and 20/40, respectively, in Snellen terms); settings: Example 3
Description: Measurements on the Jaeger scale, a near vision scale, are used and described herein. […]
as §1, §2

[3] = system: eyes of presbyopic (emmetropic or slightly hyperopic) patients; experiment: Refractive power of each eye (sphere, cylinder, spherical equivalent); assay type: in vivo, human; settings: Example 3
From the text: The following terms are ophthalmic terms commonly used by those of skill in the art. “OD” stands for oculus dexter and means right eye. “OS” stands for oculus sinister and means left eye. “UDVA” stands for unaided distance visual acuity. “UNVA” stands for unaided near visual acuity. “Sph” is the sphere, or the amount of magnification/demagnification that the eye needs to see properly. A negative sphere indicates myopia, and a positive sphere indicates hyperopia. “Cyl” is the cylinder, which is a measure of astigmatism. “Pre” indicates the condition of the eye prior to treatment, 1 h indicates the condition of the eye 1 hour after treatment, 4 h indicates the condition of the eye 4 hours after treatment, and 6 h indicates the condition of the eye 6 hours after treatment. “Sph Eq” is the spherical equivalent.
A group of 10 patients (20 eyes) considered emmetropes or slightly hyperopic (Spherical equivalent from +0.88 D to −0.50 D with less than 1.00 D of astigmatism) was treated with a composition of the invention.
Three drops containing 1% pilocarpine and 0.125% oxymetazoline w/w dissolved in a solution of 0.5% sodium chloride, with carboxymethyl cellulose as a viscosant and benzalkonium chloride as preservative were instilled into each eye three times separated 5 minutes each, and the same measurements were taken one hour, four hours and six hours later (Table 1). As shown in Table 1 and FIGS. 1-2, there was an average gain of 3.7 units of unaided near visual acuity while losing 0.7 lines of uncorrected distance visual acuity at one hour after instillation. […] The improvement in near vision was more pronounced in younger patients and the lack of detriment of the distance vision (FIG. 2) was more marked in hyperopic patients. […]
After a two-week washout period, five of the patients from example 1 were treated with a combination of 1% pilocarpine and 0.015% meloxicam dissolved in a solution of 0.5% sodium chloride in water plus carboxymethyl cellulose as viscosant and benzalkonium chloride as a preservative, and the same measurements in example 1 were taken at one hour, four hours, and eight hours later. […]

pupil of patients' eyes = experiment: Pupillary diameter in medium lighting (mesopic) conditions, infrared camera device; assay type: in vivo, human; settings: Example 3
Description: as §1, §2

In the case of `CC[C@@H]1C(=O)OC[C@@H]1Cc1cncn1C` [Pilocarpine alone, pilocarpine], the “decrease in distance vision, compared with pilocarpine + oxymetazoline” value ([1]; FIG. 4, at the 1 and 4 hour time points) is reported as “more decrease in distance vision”, the “1 h UDVA” value ([1]; one drop once, OD 1% pilocarpine + 0.025% oxymetazoline, OS 1% pilocarpine alone, single eyes, 1 h) is reported as 20/50 and 20/30 and 20/40 and the “4 h UDVA” value ([1]; one drop once, OD 1% pilocarpine + 0.025% oxymetazoline, OS 1% pilocarpine alone, single eyes, 4 h) is reported as 20/40 and 20/20 and 20/30 and 20/25 and 20/50. For the same compound, the “6 h UDVA” value ([1]; one drop once, OD 1% pilocarpine + 0.025% oxymetazoline, OS 1% pilocarpine alone, single eyes, 6 h) was 20/30 and 20/20 and 20/25, the decrease in hyperopia (patients' eyes; one patient, 0.3% topical pilocarpine, U.S. Pat. Nos. 6,291,466 and 6,410,544) was “less than half” and the tolerability (patients' eyes; topical concentrations above 0.5%) was “not tolerated due to side effects such as red eyes, ocular pain, brow ache, and headache”. For the same compound, the “effect in the accommodation of the eye” value (patients' eyes; topical concentrations below 0.5%) was “minimal effect”, the “improvement in near vision, compared with pilocarpine + oxymetazoline” value ([2]; FIG. 3) was “smaller and tended to wear out earlier” and the “1 h UNVA” value ([2]; one drop once, OD 1% pilocarpine + 0.025% oxymetazoline, OS 1% pilocarpine alone, single eyes of 10 patients, 1 h) was “J1 and J1+ and J2 and J3”. For the same compound, the induced astigmatism [3] was “seemed to induce more astigmatism”, the “1 h Cyl, AVERAGE” value ([3]; average per treatment, 1 h) was −0.59 and the “1 h Sph Eq, AVERAGE” value ([3]; average per treatment, 1 h) was −0.61. The “1 h Sph, AVERAGE” value ([3]; average per treatment, 1 h) was −0.32, the “4 h Cyl, AVERAGE” value ([3]; average per treatment, 4 h) was −0.59 and the “4 h Sph Eq, AVERAGE” value ([3]; average per treatment, 4 h) was −0.43. For the same compound, the “4 h Sph, AVERAGE” value ([3]; average per treatment, 4 h) was −0.14, the “6 h Cyl, AVERAGE” value ([3]; average per treatment, 6 h) was −0.43 and the “6 h Sph Eq, AVERAGE” value ([3]; average per treatment, 6 h) was 0.35. For the same compound, the “6 h Sph, AVERAGE” value ([3]; average per treatment, 6 h) was 0.57, the “1 h Pupil” value (pupil of patients' eyes; OD 1% pilocarpine + 0.025% oxymetazoline, OS 1% pilocarpine alone, single eyes, 1 h) was 2.1 and 2.3 and 2.2 and 2.4 and 2.5 and the “4 h Pupil” value (pupil of patients' eyes; OD 1% pilocarpine + 0.025% oxymetazoline, OS 1% pilocarpine alone, single eyes, 4 h) was 2.7 and 2.8 and 2.5 and 2.9 and 2.4 and 3 and 2.6 and 3.1. The “6 h Pupil” value (pupil of patients' eyes; OD 1% pilocarpine + 0.025% oxymetazoline, OS 1% pilocarpine alone, single eyes, 6 h) was 4.9 and 4.7 and 4.4 and 4.2 and 4.1, the “1 h Pupil, AVERAGE” value (pupil of patients' eyes; average per treatment, 1 h) was 2.05 and the “4 h Pupil, AVERAGE” value (pupil of patients' eyes; average per treatment, 4 h) was 2.52. The “6 h Pupil, AVERAGE” value (pupil of patients' eyes; average per treatment, 6 h) was 4.13.
For `Brc1c(NC2=NCCN2)ccc2nccnc12` [brimonidine], the “side effects of topical administration” value (patients' eyes; known to those in the art) is given as “lightheadedness, dizziness, dry mouth, tachycardia, and stomach upset”.
For `O=C(O)Cc1ccccc1Nc1c(Cl)cccc1Cl` [diclofenac], the “serious side effects (Congdon et al.)” value (patients' eyes; topical ophthalmic use) is listed as “persistent epithelial defects, corneal melting, and corneal perforation”.
